Measurements reported in patent US20060135587A1, “Method and compounds for promoting healing and reducing inflammation” (priority 2002, published 2006).
Read-outs that look alike come from different tables or passages of the source.

Columns and labels:
[1] = tested on: acute Con A-induced inflammation; assay: Acute Con A-induced inflammation (paw oedema) in mice; assay type: in vivo; settings: Table 3, male CBA mice
Protocol: Saline solution was similarly administered to the control animals. There were 10 mice in each group. After one hour, con A at a dose of 100 mkg/20 g of body weight was administered by sub-plantar injection into the plantar aponeurosis of the left paws of mice of both the experimental and control groups. The same amount of saline splution was injected into the contralateral paws. After one hour, the mice were killed and the experimental and control paws were weighed to assess the reaction index of the inflammation in the ankle-joint (Liubimov et al, 1999).
The anti-inflammatory effect of Compound 2 and Compound 7 was compared in male mice weighing 18-22 g, using the model described in Example 9. The ED50, i.e. the dose reducing paw ooedema by 50% one hour after injection of Concanavalin A, was calculated.

[2] = tested on: lesions of the gastric mucosa; assay: Gastric lesions induced by electrostimulation of immobilised rats; assay type: in vivo
Protocol: (§1) The models used gastric ulcers induced by
a) Electrostimulation of immobilised rats for 3 hours;
(§2) The compounds were administered intraperitoneally at a dose of 20 mg/kg; in the cryogenic ulcer model compound 2 was administered either intraperitoneally (10 mg/kg) or orally (20 mg/kg twice daily, ie. a total of 40 mg/kg/day) and was compared to orally-administered gastrocepin (1 mg/kg twice daily, ie. a total of 2 mg/kg/day).

[3] = tested on: lesions of the gastric mucosa; assay: Gastric lesions induced by immobilization and hypothermia; assay type: in vivo, rats; set-up: % reduction of degree of ulceration / % reduction of ulcerated area: concentration or dose not given beside the values; settings: Protective effect, 30 minutes before the test
Protocol: as §1
b) Immobilization and hypothermia (induced by water cooling);
as §2

[4] = tested on: cryogenic ulcer of the gastric mucosa; assay: Cryogenic gastric ulcer in rats; assay type: in vivo; settings: healing effect over the course of 14 days; twice daily, oral
Protocol: as §1
c) Ulcer created by local wounding with a cryogenic probe using a method similar to that described above for mouth ulcers.
as §2

[5] = tested on: gastric secretory function; assay: Gastric secretory function, chronic or acute tests; assay type: in vivo; settings: dogs or rats
[6] = tested on: carrageenin-induced inflammation; assay: Carrageenin-induced inflammation in intact and adrenalectomized rats; assay type: in vivo
Protocol: An acute inflammatory oedema was induced in intact and adrenalectomized male rats weighing 180-200 g by sub-plantar injection of 0.1 ml of 1% carrageenin solution into the left paw (Winter et al., 1962). The same volume of saline solution was injected into the contralateral paw. […] There were 10 rats in each group.
The degree of carrageenin-induced inflammation of the ankle joints was assessed at 3 hours after the induction of the inflammation, on the basis of the change in weight of the experimental and control paws (reaction index).

experimental granuloma = assay: Cotton-wool granuloma (chronic proliferative inflammation) in rats; assay type: in vivo
Protocol: We investigated the ability of compound (2) to reduce the formation of granulation tissue in the inflammatory focus which develops at the site at which a non-sterile cotton-wool roll weighing 40 mg is implanted subcutaneously (Swingle and Shideman, 1972). Compound (2) was administered orally to male rats weighing 130-150 g at a dose of 100 mg/kg for 6 days before the cotton-wool roll was implanted, and then for 6 days at the same dose while the granuloma developed. Anti-inflammatory agents, such as ibuprofen and butadione, were used for comparison, using the same procedure. There were 10 rats in each group.
After 12 days the experiment was terminated, and the granulomas were excised, weighed, and the wet weight of the granulation tissue was measured. The dry mass of the granuloma was measured after drying for 24 hours at 70° C., and the exudative and proliferative stages of the granulomas were calculated. Statistical analysis was performed using the Student's parametric test.

[7] = oral dose used for the comparative medication; cited from earlier work
[8] = tested on: regeneration of liver after partial hepatectomy; assay: Liver regeneration after partial hepatectomy in rats; assay type: in vivo; settings: for Catalase E activity / DNA content (in mg/g of tissue) / Protein content / RNA content (mg/g of tissue) / SOD activity: 0.2 mM/kg; for Level of recovery: 0.2 mM/kg intraperitoneally, 7 days, hepatectomy alone = 100
Protocol: Partial hepatectomy was performed using the conventional method (Higgins and Anderson, 1931) by removing the left lateral and central lobes of the liver from 80 male white rats, weighing 180-200 g.
Compound 2, Compound 4, Compound 5 or Compound 6 was administered to the experimental groups intraperitoneally in equimolar doses of 0.1 mM/kg and 0.2 mM/kg. These optimal doses were determined in preliminary experiments. The control group received intraperitoneal injections of saline solution. The compounds were administered on the day after the operation and then one injection was given daily over the course of 7 days, since maximum growth of the liver mass in rats is observed in the first 7 days after partial hepatectomy (Solopaev, 1980).
The effectiveness of the compounds was compared to that of a combination of non-steroid anabolic regeneration stimulators which are used in the treatment of liver pathology, namely Riboxin and potassium orotate at a dose of 0.2 mM/kg each (Rychnev and Frolov, 1984).
For quantitative evaluation of the regeneration process in the liver the coefficient of regeneration completion as determined by the formula below was used: [formula] where
Stimulation of the regeneration of tissue after hepatectomy in response to different medicinal preparations is associated with an increase in the synthesis of nucleic acids, as indicated by the increase in the content of RNA and DNA in the regenerated tissue. Quantitative analysis of DNA and RNA was performed by centrifugation. […] The enzymic component of anti-oxidant protection was also assessed on the basis of the activity of catalase and superoxidedismutase (SOD).
5 ml of […] of HCIO4 solution were added to the sample (100 mg). In order to ensure complete sedimentation of the acid-insoluble fraction, the beakers were put in ice for 15 minutes. Then they were centrifuged for 10 minutes at 5000 revolutions per minute. The sediment was washed twice with 0.2 M HCIO4. After the final centrifugation, the walls of the beaker were carefully dried with gauze and filter paper. The sediment was ground down with a glass pestle, suspended in 1 ml of water and then 1 ml of 0.6 M KON solution was added at room temperature. Hydrolysis was performed over the course of 1 hour at 37° C., then the beakers were put in ice to stop the hydrolysis process. 4 ml of the 0.6 M solution were added to each beaker and the beakers were left in ice for another 15 minutes, then centrifuged for 15 minutes at 5000 revolutions per minute. The supernatant was used to determine the RNA by UV absorption at 260 nm and 290 nm compared to the control sample containing 0.4M of HCIO4). The amount of RNA in μg per 1 ml of the supernatant was calculated using the following formula: [formula] where C=is the RNA concentration (μg/ml)
DNA analysis was carried out on the sediment remaining after the alkaline hydrolysis used to determine RNA. 0.5 M of HCIO4 (5 ml per sample) was poured into the dried beaker containing the sediment. Hydrolysis was performed in a boiling water bath for 20 minutes. The amount of DNA in μg per 1 ml of the hydrolysate was calculated using the following formula: [formula] where C=is the DNA concentration (μg/ml). Catalase Activity
Catalase activity was determined using the permanganate method. The optimal amount of the substrate (3 ml of 1% H2O2) and 1 ml of the enzyme were added to 10 ml of phosphate buffer, pH 7.8. After 10 minutes the reaction was stopped by adding 1.5 ml of H2SO4 (50%). The remaining hydrogen peroxide was filtered with 0.1M of KMnO4 solution. Catalase activity was calculated on the basis that 1 ml of 0.1M of KMnO4 solution corresponds to […] of H2O2.
SOD activity was determined using the dianisidine method, which is based on the fact that under ultraviolet irradiation Riboflavin (Rb) is converted to an excited (ionised) state and therefore becomes able to attack reduced dianisidine (DH2). […]

[9] = tested on: liver after partial hepatectomy; assay: Morphological study of the liver after partial hepatectomy; assay type: in vivo, rats
Protocol: Morphological methods are highly informative in the assessment of repair processes. Histological tests of the liver after partial hepatectomy were performed using generally accepted methods. Microscopic sections were stained with hematoxylin and eosin using Van Gieson's methodology. Liver tests after partial hepatectomy were performed on 8 groups of animals, totalling 37 rats. All animals were examined one week after hepatectomy.

in vivo = settings: male, mouse, ip
Protocol: (§3) The acute toxicity of 1,3-dialkyl-4,5-bis (N-methylcarbamoyl)imidazolium salts was assessed following intraperitoneal injection into 200 white male mice weighing 18 to 20 g. Dead animals were counted daily after the administration of the test substance.

[10] = tested on: cryogenic injuries of the sigmoid colon; assay: Cryogenic damage of the colon, model of ulcerative colitis; assay type: in vivo, rats; settings: oral
Protocol: A model of cryogenic damage of the colon was used in this experiment to simulate ulcerative colitis. Cryogenic injuries of the sigmoid colon of rats were induced by pressing a metal rod of […] in diameter cooled in liquid nitrogen to the serous membrane of the colon for 10 seconds under ether anaesthesia.
Tests were performed on 67 male rats weighing 180-200 g, with 8 animals in each group. Animals were kept in separate cages, with normal food and water ad libitum. The test compounds were administered orally on the second day after the operation, and then daily until healing was complete. Compound 2 or Compound 6 was administered to test animals at a dose of 20-50 mg/kg. The following agents were used for comparison:
The nature of the healing of the ulcer injury was examined morphologically on days 1, 3 and 7. […] The inflammatory process extends beyond the injured area into the adjacent areas, and beyond the peritoneum into fatty connective tissue.

[11] = 10 mg/kg intra-peritoneally one hour before Con A
[12] = 50 mg/kg intra-peritoneally one hour before Con A
[13] = Healing effect over the course of 3 days
[14] = Protective effect, 30 minutes before the test
[15] = Adrenalectomized animals, 48 mg/kg orally 4 days + carrageenin

Protocol for white male mice: as §3

1,3-diethyl-4,5-bis(N-methylcarbamoyl)-imidazolium benzenesulfonate [Compound 3]
Reaction index (%) [1, 11]: 9.5 ± 2.5 %
Reaction index (%) [1, 12]: 9.5 ± 2.0 %
% reduction of degree of ulceration [2, 13]: 26.5%
Average number of lesions per animal [2, 13]: 2.5 ± 0.4
% reduction of degree of ulceration [2, 14]: 50%
% reduction of ulcerated area [2, 14]: 54%
Area of lesion [2, 14]: 7.1 ± 4.1
Average number of lesions per animal ([2]; Protective effect, 30 minutes before the test, 20 mg/kg intraperitoneally): 3.5 ± 0.4
% reduction of degree of ulceration [3]: 41%
% reduction of ulcerated area [3]: 41%
Area of lesion [3]: 7.2 ± 2.0
Average number of lesions per animal ([3]; 20 mg/kg intraperitoneally): 6.8 ± 1.4
% reduction of degree of ulceration [4]: 59%
Average number of lesions per animal [4]: 7.7 ± 2.5
effect on gastric secretory function [5]: did not affect gastric secretory function
LD50 (white male mice): over 500 mg/kg
toxicity (white male mice): very low toxicity
LD50 (white male mice; intraperitoneal injection, white male mice, 14 days observation): 1292 mg/kg

CC(C)Cc1ccc(C(C)C(=O)O)cc1 (stereo not drawn) [Ibuprofen, ibuprofen]
Inhibition of oedema(%) ([6]; 48 mg/kg 4 days + carrageenin): 63.39%
Reaction index (%) ([6]; 48 mg/kg 4 days + carrageenin): 15.88 ± 1.88 %
Inhibition of oedema(%) [6, 15]: 57.90%
Reaction index (%) [6, 15]: 18.12 ± 1.82 %
Granuloma weight (mg) Dry weight (experimental granuloma; 48 mg/kg): 143.2 ± 9.83 mg
Granuloma weight (mg) Exudative stage (experimental granuloma; 48 mg/kg): 670.8 mg
Granuloma weight (mg) Fresh weight (experimental granuloma; 48 mg/kg): 814.0 ± 63.72 mg
Granuloma weight (mg) Proliferative stages (experimental granuloma; 48 mg/kg): 103.2 mg
ED50 values from the literature [7]: 48 mg/kg

CCCCC1C(=O)N(c2ccccc2)N(c2ccccc2)C1=O [Butadione]
Granuloma weight (mg) Dry weight (experimental granuloma; 60 mg/kg): 145.4 ± 7.45 mg
Granuloma weight (mg) Exudative stage (experimental granuloma; 60 mg/kg): 682.6 mg
Granuloma weight (mg) Fresh weight (experimental granuloma; 60 mg/kg): 828.0 ± 76.68 mg
Granuloma weight (mg) Proliferative stages (experimental granuloma; 60 mg/kg): 105.4 mg
ED50 values from the literature [7]: 60 mg/kg

CC[n+]1cn(C)c(C(=O)NC)c1C(=O)NC [Compound 4, 1-methyl-3-ethyl-4,5-bis(N-methylcarbamoyl)-imidazolium chloride]
Reaction index (%) [1, 11]: 14.1 ± 2.0%
Reaction index (%) [1, 12]: 12.4 ± 0.4 %
Catalase E activity [8]: 18.0 ± 2.6 μgM/min/g tissue × 1000
DNA content (in mg/g of tissue) [8]: 3.72 ± 0.09 mg/g of tissue
Protein content [8]: 85.5 ± 10.6 Mg/g tissue
RNA content (mg/g of tissue) [8]: 7.14 ± 0.2 mg/g of tissue
SOD activity [8]: 90.0 ± 3.3 Units/g tissue
Level of recovery [8]: 128.3
histological findings in the liver ([9]; rat, in vivo): showed no undesirable effects
toxicity (white male mice): very low toxicity
LD50 at 14 days (in vivo): 1220 mg/kg

1-methyl-3-ethyl-4,5-bis(N-methylcarbamoyl)-imidazolium salicylate [Compound 6]
indicators of healing relative to Compound 2 [10]: less pronounced
Catalase E activity [8]: 20.0 ± 2.7 μgM/min/g tissue × 1000
DNA content (in mg/g of tissue) [8]: 3.88 ± 0.17 mg/g of tissue
Protein content [8]: 93.0 ± 14.0 Mg/g tissue
RNA content (mg/g of tissue) [8]: 7.41 ± 0.16 mg/g of tissue
SOD activity [8]: 100.0 ± 4.7 Units/g tissue
Level of recovery [8]: 105.0
histological findings in the liver ([9]; 0.2 MM/kg, one week after hepatectomy): showed no undesirable effects
